The values that follow come from patent publication US20060223857A1, “Combination of a serotonin reuptake inhibitor and a glycine transporter type 1 inhibitor for the treatment of depression” (priority 2003, published 2006).

The assay relates to serotonin levels in rat ventral hippocampus. The assay is described as follows: Microdialysis of serotonin levels in ventral hippocampus. Type of assay: in vivo. On the procedure: Male albino rats of a Wistar-derived strain (285-320 g; Harlan, Zeist, The Netherlands) were used for the experiments. Upon surgery, rats were housed individually in plastic cages (35×35×40 cm), and had free access to food and water. Animals were kept on a 12 h light schedule (light on 7:00 a.m.). The experiments are concordant with the declarations of Helsinki and were approved by the animal care committee of the faculty of mathematics and natural science of the University of Groningen.
The following drugs were used: Citalopram hydrobromide and NFPS having the structure: [drawing 3] (LU 2736N) (Lundbeck A/S, Copenhagen, Denmark). Drugs were dissolved in saline and administered s.c. Surgery […]
Twenty-μl microdialysate samples were injected via an autoinjector (CMA/200 refrigerated microsampler, CMA, Sweden) onto a 100×2.0 mm C18 Hypersil 3 μm column (Bester, Amstelveen, the Netherlands) and separated with a mobile phase consisting of 5 g/L di-ammoniumsulfate, 500 mg/L EDTA, 50 mg/L heptane sulphonic acid, 4% methanol v/v, and 30 μl/L of triethylamine, pH 4.65 at a flow of 0.4 ml/min (Shimadzu LC-10 AD). 5-HT was detected amperometrically at a glassy carbon electrode at 500 mV vs Ag/AgCl (Antec Leyden, Leiden, The Netherlands). […]

In the case of `CN(CCC(Oc1ccc(-c2ccccc2)cc1)c1ccc(F)cc1)CC(=O)O` (centres unmarked) [NFPS], under “NFPS 10 μmol/kg s.c. co-administered with citalopram 10 μmol/kg s.c., Treatment P=0.044, Treatment vs. Time P=0.033”, the “augmentation of the effect of citalopram on hippocampal serotonin levels” value is “significantly augmented the effect of citalopram”. Where the note is “NFPS alone, 10 μmol/kg s.c., microdialysis, Wistar rats”, the “effect on serotonin levels in rat ventral hippocampus” value is given as “did not induce any significant effects”.
